Here are results for 14 compounds from patent EP4678629A1, “IONIZABLE LIPID MOLECULE, PREPARATION METHOD THEREFOR AND USE THEREOF” (Maxirna (Shanghai) Pharmaceutical Co., Ltd., priority 2023, dated 2024).

Data set [1] in a line: Size and polydispersity index (PDI) of the lipid nanoparticle by dynamic light scattering. The following applies: LNP encapsulating eGFP mRNA, ionizable lipid/DOPE/cholesterol/DMG-PEG2000 50/10/48.25/1.25 mol%, N/P 12; for Particle size: in nm (unit assumed). It is filed as physicochemical. The procedure: (§1) The ionizable lipid compound and positive control 1 from Example I were dissolved in ethanol at a molar ratio of 50:10:48.25:1.25 with DOPE, cholesterol, and DMG-PEG2000 (all purchased from A.V.T (Shanghai) Pharmaceutical Co., Ltd.) to prepare an ethanol lipid solution. The enhanced green fluorescent protein (eGFP) mRNA was diluted in 20 mM citrate buffer (pH=6.1) to obtain an mRNA aqueous solution. By using a microfluidic device (Micro&Nano Biologics Co., Ltd., model: INano ™ L) mix ethanol lipid solution and mRNA aqueous solution in a volume ratio of 1:3 to prepare a lipid nanoparticle with a total lipid to mRNA N/P ratio of 12. The medium was replaced by ultrafiltration, ethanol was removed and volumed with DPBS. Finally, the lipid nanoparticle was filtered through a 0.2 µm sterile filter to obtain an LNP preparation encapsulating eGFP mRNA using ionizable lipid/DOPE/cholesterol/DMG-PEG2000 (50/10/48.25/1.25 mol%), with an mRNA content of 0.002 mg/ml-0.5 mg/mL.
(§2) Using Malvern Zetasizer Nano ZS (Malvern UK), the size and polydispersity index (PDI) of the lipid nanoparticle were determined by dynamic light scattering in 173° backscatter detection mode, and the encapsulation efficiency was measured by Ribogreen method.

Data set [2] can be described thus: Encapsulation efficiency of the lipid nanoparticle (eGFP mRNA) by Ribogreen method. The data set is classed as physicochemical. Particulars: LNP encapsulating eGFP mRNA, ionizable lipid/DOPE/cholesterol/DMG-PEG2000 50/10/48.25/1.25 mol%, N/P 12. As for the experimental part: as §1, §2
A short description of data set [3]: In vitro transfection of cells with eGFP-mRNA lipid nanoparticle (LNP preparation), fluorescence imaging and flow cytometry. It is filed as cell-based, mouse. The following applies: mouse, dc2.4 cells, 200 ng of mRNA per well, after 24 hours; read-out: Cell viability, %. An excerpt: (§3) This example used mouse bone marrow-derived dendritic cells DC2.4 (purchased from Millipore) as the validation cell line for a lipid nanoparticle transfection experiment. DC2.4 cells adhered to the wall for growth. All operational steps of cell culture strictly followed the prescribed procedures, using sterile reagents for aseptic operations under a sterile workbench. The main operational steps involved were as follows: • 1) Cell recovery: the preserved cell cryopreservation solution was removed from the -80 °C freezer and immediately placed in a 37 °C water bath for rapid and continuous shaking, allowing it to completely melt within one minute. Fresh culture medium was added to a 15 mL centrifuge tube in advance, and the cell fluid was added to the centrifuge tube in a biosafety cabinet. A centrifuge tube of the same mass was taken, placed symmetrically in the centrifuge, and centrifuged at low speed for 5 minutes at 1200 rpm. After centrifugation, the upper clear liquid was removed, and an appropriate amount of culture medium was slowly added along the tube wall. After the cells were gently blown and dispersed evenly, the cell suspension was drawn and added to the prepared culture bottle. The state and distribution of cells in the early stage of recovery were observed under a microscope. The culture bottle was incubated in a 5% CO2 incubator at 37 °C, and the recovery time was recorded. • 2) Cell passaging: Under a microscope, if the cell density in the field of view reached 80%-90%, cells could be passaged and cultured. Adherent cells required trypsin digestion. In order to avoid residual serum in the culture medium reducing trypsin activity, the original culture medium was removed, and DPBS solution was added to wash once. After suctioning out the DPBS solution, trypsin was added to degrade the protein at the intercellular junction, thereby separating the cells and facilitating further cultivation. The mixture was gently shaken well and placed into the incubator for digestion for 2-3 minutes. After digestion was complete, an appropriate amount of culture medium was immediately added to the original culture dish to terminate digestion. Finally, a pipette was used to carefully blow off the cells and blow them until they were evenly dispersed, and then the cells were inoculated and subcultured in a certain proportion according to experimental requirements.
(§4) Transfection of DC2.4 cells • 1) DC2.4 cell recovery: the frozen DC2.4 cells were taken out from the -80 °C refrigerator and immediately put into a 37 °C water bath for rapid thawing. After melting, they were added to the preheated culture medium, and centrifuged at 1200 rpm for 5 minutes. The supernatant was discarded, and an appropriate amount of DMEM medium containing 10% FBS was added to resuspend the recovered DC2.4 cells, which were placed in a 37 °C, 5% CO2 incubator for activation culture. • 2) According to experimental requirements, DC2.4 cells were transfected into 24 well plates one day in advance. By counting cells, the number and viability of cells were recorded, and a cell suspension with 2 × 10^5 cells per well were taken. Then, a certain volume of DMEM medium containing 10% FBS was added and mixed evenly, wherein 1 mL was added per well for subsequent transfection experiments. • 3) After 24 hours, the culture medium was gently aspirated with a pipette 30 minutes in advance, and each well was washed with 1 mL of DPBS and aspirated. […] The mixture was placed in a 37 °C, 5% CO2 incubator for activation cultivation. • 6) After 24 hours, cell viability (%), eGFP positivity rate (%), and mean fluorescence intensity data were obtained through cell fluorescence imaging and flow cytometry.
For orientation: A flow cytometer gives signals particle by particle.

A further data set relates to DC2.4 cells. The description is as above. It is filed as cell-based, mouse. Particulars: for Positive rate, %: eGFP positivity rate; for Positive rate, % / Cell viability, %: DC2.4 cells, 200 ng of mRNA per well, after 24 hours; for Mean fluorescence intensity: eGFP-mRNA expression on DC2.4 after 24 hours, normalized based on Example 11.
Excerpt: as §3, §4

By viability is commonly meant a read-out of living cells in per cent, often relative to untreated cells. With `CCCCCCCCCCCOC(=O)CCCCCN(CCCO)CCCN(CCCCCC(=O)OCCCCCCCCCCC)CCCCCC(=O)OCCCCCCCCCCC` [Example 27, Diundecyl 6,6'-((3-((3-hydroxypropyl)(6-oxo-6-(undecyloxy)hexyl)amino)propyl)azanediyl)dihexanoate], in data set [1], the PDI is recorded as 0.12 and the Particle size is 88.43. For the same compound, in data set [2], the “Encapsulation rate, %” value is reported as 99.65%. Also, the viability at 24 h in data set [3] came to 98.2%. In addition, the “Positive rate, %” value in the data set with DC2.4 cells came out at 97.36%.
In data set [1], `CCCCCCCCCCOC(=O)CCCN(CCCO)CCCCN(CCCC(=O)OCCCCCCCCCC)CCCC(=O)OCCCCCCCCCC` [Example 86] gave a PDI of 0.13 and a Particle size of 88.62. For the same compound, the “Encapsulation rate, %” value in data set [2] is 94.50%. In data set [3], the viability at 24 h is 93%. Also, in the data set with DC2.4 cells, the “Positive rate, %” value is reported as 94.18%.
The compound “Tetratridecyl 8,8',8",8"-(((3-hydroxypropyl)azadiyl)di(propane-3,1-diyl))di(azanetriyl)tetraoctanoate [Example 99]” displayed a PDI in data set [1] of 0.26. Besides, in data set [2], the “Encapsulation rate, %” value was 69.17%. In addition, in the data set on DC2.4 cells, the “Cell viability, %” value is recorded as 93.2%; the “Positive rate, %” value worked out at 77.44%; the Mean fluorescence intensity came to 0.49.
“4,4'-didecyl((4-(decyloxy)-4-oxobutyl)(3-hydroxypropyl)amino)butyl)azetidinyl)dibutanoate [Example 102]”: in data set [1], the PDI was 0.12 and the Particle size is 94.58. Besides, the “Encapsulation rate, %” value in data set [2] is listed as 93.93%. Moreover, in the data set on DC2.4 cells, the “Cell viability, %” value stood at 94.6%; the “Positive rate, %” value turned out to be 93.18%; the Mean fluorescence intensity is reported as 1.28.
In data set [1], “8-((6Z,10Z,46Z,49Z)-30-(3-hydroxypropyl)-20,36-dioxo-26,30-diaza-19,37-dioxapentatriacontane-6,9,46,49-tetraen-26-yl)(7Z,10Z)-hexadec-7,10-dien-1-yl octanoate [Example 96]” gave a PDI of 0.13 and a Particle size of 89.25. Besides, the “Encapsulation rate, %” value in data set [2] is 93.34%. In addition, in the data set with DC2.4 cells, the “Cell viability, %” value came to 96.6%; the “Positive rate, %” value came to 94.64%; the Mean fluorescence intensity was determined as 0.97.
In data set [1], `CC/C=C\COC(=O)CCCCCCCN(CCO)CCCN(CCCCCCCC(=O)OC/C=C\CC)CCCCCCCC(=O)OC/C=C\CC` [Example 97] displayed a PDI of 0.34. Also, the “Encapsulation rate, %” value in data set [2] is 67.68%. The “Cell viability, %” value in the data set on DC2.4 cells (1440 min) was found to be 90.5%. Also, the “Positive rate, %” value in the data set on DC2.4 cells is listed as 83.64%.
On to `CCCCCCCCCCCOC(=O)CCCCN(CCO)CCCN(CCCCC(=O)OCCCCCCCCCCC)CCCCC(=O)OCCCCCCCCCCC` [Example 38, Diundecyl 5,5'-((3-((2-hydroxyethyl)(5-oxo-5-(undecyloxy)pentyl)amino)propyl)azadiyl)dipentanoate], for which, in data set [1], the PDI came out at 0.10 and the Particle size worked out at 65.19. In addition, in data set [2], the “Encapsulation rate, %” value worked out at 99.04%. In addition, in the data set with DC2.4 cells (1440 min), the “Cell viability, %” value was determined as 94.1%. Moreover, the “Positive rate, %” value in the data set with DC2.4 cells turned out to be 90.28%.
The like results for `CCCCCCCCCCCCCOC(=O)CCCCCCCN(CCO)CCCN(CCCCCCCC(=O)OCCCCCCCCCCCCC)CCCCCCCC(=O)OCCCCCCCCCCCCC` [Example 90, Tridecyl 8-(29-hydroxy-15-oxo-23-(8-oxo-8-(tridecyloxy)octyl)-23,27-diaza-14-oxanonacosane-27-yl)octanoate] were, in that order, 0.14, 84.42, 94.33%, 91.6% and 92.38%.
In data set [1], `CCCCCC/C=C\COC(=O)CCCCCCCCCN(CCO)CCCN(CCCCCCCCCC(=O)OC/C=C\CCCCCC)CCCCCCCCCC(=O)OC/C=C\CCCCCC` [Example 92, 10-((7Z)-27-hydroxy-21-(10-(((2Z)-non-2-enyl)oxy)-10-oxodecyl)-11-oxo-21,25-diaza-10-oxaheptacosane-7-en-25-yl)decanoic acid-(2Z)-non-2-en-1-yl ester] returned a PDI of 0.28. For the same compound, the “Encapsulation rate, %” value in data set [2] was determined as 76.22%. The “Cell viability, %” value with DC2.4 cells (1440 min) was 92.6%. Further, the “Positive rate, %” value in the data set with DC2.4 cells was 73.64%.
In data set [1], `CCCCCCCCCCCCOC(=O)CCCN(CCCO)CCCCN(CCCC(=O)OCCCCCCCCCCCC)CCCC(=O)OCCCCCCCCCCCC` [Example 84] gave a PDI of 0.11 and a Particle size of 89.72. For the same compound, the “Encapsulation rate, %” value in data set [2] was found to be 97.58%. In addition, the “Cell viability, %” value in the data set on DC2.4 cells (1440 min) came out at 90.2%. Besides, the “Positive rate, %” value in the data set on DC2.4 cells was 96.42%.
“4,4'-(3-(((2-hydroxyethyl)((E)-4-oxo-4-(undecyloxy)but-2-en-1-yl)amino)propyl)azadiyl)(2E,2'E)-di(but-2-enoic acid) [Example 105]” displayed a PDI in data set [1] of 0.24. Moreover, the “Encapsulation rate, %” value in data set [2] was found to be 66.08%. In the data set on DC2.4 cells, the “Cell viability, %” value stood at 95.8%; the “Positive rate, %” value was found to be 78.32%; the Mean fluorescence intensity is 0.39.
Compound `CCCCCCCCCCCCCOC(=O)CCCN(CCCO)CCCCN(CCCC(=O)OCCCCCCCCCCCCC)CCCC(=O)OCCCCCCCCCCCCC` [Example 85, 4,4'-((4-((3-hydroxypropyl)(4-oxo-4-(tridecyloxy)butyl)amino)butyl)azetidinyl)dibutyric acid diester] came in with a PDI in data set [1] of 0.10. The “Encapsulation rate, %” value in data set [2] was determined as 93.32%. In the data set with DC2.4 cells (1440 min), the “Cell viability, %” value was determined as 95.9%. Besides, in the data set with DC2.4 cells, the “Positive rate, %” value is 96.2%.
On to `CCCCC/C=C\C/C=C\CCCCCCCCOC(=O)CCCCCCCN(CCO)CCCN(CCCCCCCC(=O)OCCCCCCCC/C=C\C/C=C\CCCCC)CCCCCCCC(=O)OCCCCCCCC/C=C\C/C=C\CCCCC` [Example 79], for which, in data set [1], the PDI is given as 70.67 and the Particle size was found to be 99.80. In addition, in data set [2], the “Encapsulation rate, %” value was 99.80%. For the same compound, the “Cell viability, %” value in the data set with DC2.4 cells (1440 min) is 95.0%. Moreover, in the data set on DC2.4 cells, the “Positive rate, %” value is listed as 95.05%.
For `CCCCCCCCCCCOC(=O)CCCCCCCCCN(CCO)CCCN(CCCCCCCCCC(=O)OCCCCCCCCCCC)CCCCCCCCCC(=O)OCCCCCCCCCCC` [Example 91, Undecyl 10-(29-hydroxy-13-oxo-23-(10-oxo-10-(undecyl)oxydecyl)-23,27-diaza-12-oxanonacosane-27-yl)caprate], the PDI in data set [1] is recorded as 0.24. Moreover, the “Encapsulation rate, %” value in data set [2] was found to be 79.63%. Moreover, in the data set with DC2.4 cells (1440 min), the “Cell viability, %” value is listed as 91.4%. For the same compound, the “Positive rate, %” value in the data set with DC2.4 cells is on record as 62.74%.
